Where a SMILES comes first, the peptide text is derived from it. The star is where a group is joined. Cbz = O=C(OCc1ccccc1)*
Columns and labels:
[1] = test system: proteasome chymotrypsin-like activity; assay: Proteasome-Glo chymotrypsin-like activity; format: cell-based; conditions: C33a cells, 2 hrs, 10 μM or 30 μM
[2] = test system: proteasome trypsin-like activity; assay: Proteasome-Glo trypsin-like activity; format: cell-based; conditions: C33a cells, 2 hrs, 10 μM or 30 μM
[3] = test system: p53-Luc; assay: TE6 p53-Luc targeted degradation reporter in C33a cells; format: cell-based; conditions: C33a cells expressing p53-Luc and TE6
Procedure: Adenoviruses were generated using the RAPAd CMV adenoviral expression system (Cellbiolabs, San Diego, CA). High-throughput screening was performed at the University of Illinois High-Throughput Screening Facility. For each group, 1x 10^7 C33a cells were plated in 150 mm^2 dishes in 20 ml cDMEM. For p53xTE6 group, 1 x 10^8 GFU/mL of p53-Luc adenovirus and 1 x 10^9 GFU/mL TE6 adenovirus were plated. For RbxTE7 group, 1 x 10^8 GFU/mL of p60RbRen adenovirus and 1 x 10^9 GFU/mL of βTrCP-E7 adenovirus were added. For control group, Ad-Red was substituted for TE6 or TE7 adenovirus in the p53 control and Rb control, respectively. […] Positive hits were scored as ≥ 2-fold above vehicle treated p53-Luc wells.
For the in vitro assay, E6 was cloned into the pMAL vector in frame with the maltose binding protein. […] We measured luciferase activity after 30 minutes. For the trypsin and chymotrypsin assay, C33a cells were incubated for 2 hours with the indicated compounds at 10 μM and assessed for chymotrypsin and trypsin activity using Proteasome-Glo assay (Promega). […] After incubation, cells were lysed and luciferase activity measured and p53 levels measured by Western blot.

[4] = test system: HeLa cells; assay: Cell viability (Cell Titer Glo), HeLa; format: cell-based; conditions: for IC50: HeLa cells, 48 hrs, Cell Titer Glo
Procedure: (§1) For the viability assays, 20,000 C33a, HeLa, or siHA cells were plated in white 96 well flat bottom plates. The cells were treated with compounds at concentrations from 0.5 to 30 μM for 48 hrs. After incubation, Cell Titer Glo (Promega) was added to the cells and luminescence read in a Tecan II plate reader. For annexin V and PI staining, 500,000 C33a cells were treated with inhibitor for 24 hrs. The cells were stained with Annexin V-FITC and PI according to eBioscience manufacturer’s instructions and analyzed by flow cytometry.

[5] = test system: C33a cells; assay: Cell viability (Cell Titer Glo), C33a; format: cell-based; conditions: for IC50: C33a cells, 48 hrs, Cell Titer Glo
Procedure: as §1

[6] = test system: p53-Luc; assay: In vitro E6 degradation assay (recombinant E6 with p53-Luc lysates); format: biochemical; conditions: 50 ng recombinant E6, 10 μM compound, C33a lysates, 6 hours
Procedure: For the in vitro assay, E6 was cloned into the pMAL vector in frame with the maltose binding protein. The E6 was expressed in bacteria and purified on amylose column. C33a cells were transfected with p53-Luc and incubated overnight. 50 ng recombinant E6 was incubated with 10 μM compound and C33a lysates for 6 hours at 30 degrees. We measured luciferase activity after 30 minutes. For the trypsin and chymotrypsin assay, C33a cells were incubated for 2 hours with the indicated compounds at 10 μM and assessed for chymotrypsin and trypsin activity using Proteasome-Glo assay (Promega). For the in vivo degradation assay, C33a cells expressing Ad-TE6 and Ad-p53 or expressing Ad-TE7 and Ad-Rb-Ren were treated for 8 hours with compounds. After incubation, cells were lysed and luciferase activity measured and p53 levels measured by Western blot.

[7] = test system: C33a cells; assay: Cell viability after p53 siRNA knockdown; format: cell-based; conditions: p53 siRNA vs scrambled, 10 μM, 48 hrs
Procedure: C33a cells were transfected with 100 pmol siRNA for p53 (Dharmacon, L-003329-00-0005) or AllStar control (Qiagen) using lipofectamine2000 according to manufacturer’s instructions. The cells were incubated for 24 hrs and then split and incubated with 10 μM compounds. Cell viability was measured after 48 hours by Cell Titer Glo. Efficiency of knockdown was determined by quantitative RT-PCR using SYBR green.

[8] = test system: siHA cells; assay: Cell viability (Cell Titer Glo), siHA; format: cell-based; conditions: 48h
Procedure: as §1

[9] = biological target: T1, p53 (Homo sapiens, UniProt P04637, R273C); assay: Nuclear/cytoplasmic fractionation and Western analysis of p53; format: cell-based; conditions: C33a cells, 6 hrs, Western
T1 construct: endogenous in cells; host or cells: C33a
Procedure: For nuclear/cytoplasmic fractionation, 1 × 10^7 C33a cells were treated with 30 μM compound for 6 hrs. The cells were washed with PBS and lysed in 1000 μL of cytoplasmic extraction buffer (10 mM KCl, 10 mM HEPES, pH 7.9, 0.1 mM EDTA, 1 mM dithiothreitol) and incubated on ice for 20 min. 50 μL of 10% NP-40 was added to each lysate, vortexed and then centrifuged at 12,000 × g for 10 min. The cytosolic fraction was collected and the pellet containing the nuclei suspended in 50 μL of nuclear extraction buffer (0.4 M NaCl, 20 mM HEPES, pH 7.9, 1 mM EDTA). The nuclear fraction was incubated for 30 min on ice. The samples were spun at 14,000 × g for 10 min and the supernatants were collected. To concentrate the cytoplasmic fraction, 500 μL methanol, and 200 μL chloroform were added and the samples were vortexed, centrifuged for 10 min at 14,000 × g, and the upper and lower layer were discarded. The solid interphase was collected and suspended in 50 μL of lysis buffer. Equal cell equivalents were loaded on a gel and electrophoresed. For whole cell lysates, C33a cells were lysed with a modified RIPA buffer and subjected to SDS-PAGE electrophoresis. The gels were transferred to nitrocellulose and blots probed with antibodies for p53 (Santa Cruz, antibody FL-303), lamin A/C, and calnexin (Santa Cruz Biotechnology).

[10] = test system: p21, BAX and FAS; assay: p53 target gene expression (p21, BAX, FAS) by qRT-PCR; format: cell-based; conditions: HeLa cells, 8h
Source text: (§2) RNA from C33a and HeLa was isolated by Trizol and reverse transcribed using the first strand synthesis kit from NEB. Primers for p53, GAPDH and PUMA were used for quantitative real-time PCR (qRT-PCR). Primer sequences include: PUMA (forward primer: CTCAACGCACAGTACGAG and reverse primer: […]), FAS (forward primer: TCTGCCATAAGCCCTGT and reverse primer: GTCTGTGTACTCCTTCCCT), p21 (forward primer: […] and reverse primer: […]), and BAX (forward primer: […] and reverse primer: […]). ΔΔCt values were determined for PUMA using GAPDH to normalize data. Bio-rad SYBR green was used for the amplification and detection of the PCR products on an iCycler (Bio-rad).

[11] = biological target: T1, p53; assay: p53 nuclear localization by immunofluorescence; format: cell-based; conditions: C33a cells, 30 μM, 8 hrs
Procedure: C33a cells were plated into chamber slides and treated with 30 μM of compounds 3 or, 4 for 4, or 8 hours. As a control, 30 μM cisplatin was used. The cells were fixed with 2.5% formaldehyde for 30 minutes, followed by permeabilization with 0.01% Triton X100 for 30 minutes. Cells were blocked with 5% goat serum for 30 minutes and stained overnight with anti-p53 (Santa Cruz, antibody FL-303) or anti-phospho-H2A.X (cell signaling) in 1% FCS in PBS at 4°. The following day, the cells were washed with PBS and incubated for 45 minutes with anti-rabbit-FITC and DAPI in 1% FCS in PBS. The cells were washed and mounted with ProLong Gold.

[12] = test system: PUMA; assay: PUMA transcription by qRT-PCR; format: cell-based; conditions: 30 μM, 8h
Source text: as §2

Structure (SMILES)	chymotrypsin-like proteasome activity [1]	trypsin-like proteasome activity [2]	restoration of p53-Luc luciferase activity [3]	IC50 [4]	IC50 [5]	expression of p21, BAX and FAS [10]	further results
CC(C)C[C@@H](C=O)NC(=O)[C@H](CC(C)C)NC(=O)[C@H](CC(C)C)NC(=O)OCc1ccccc1 [MG132, reference compound] (Cbz-Leu-Leu-Leu-aldehyde)	significantly inhibited	significantly inhibited	–	–	–	–	–
OCc1ccc(-c2ccc(-c3ccc(CO)s3)o2)s1 [RITA]	–	–	did not restore p53-Luc activity	–	–	–	–
CC(C)C[C@H](NC(=O)[C@H](Cc1ccccc1)NC(=O)c1cnccn1)B(O)O [bortezomib]	–	–	restored p53-Luc luciferase activity	–	–	–	–
N.N.[Cl][Pt][Cl] [cisplatin, reference compound]	–	–	–	4.6 µM	24 µM	–	–
Cc1cccc(/C=C/c2ccc3cccc(O)c3n2)c1O [compound 3]	did not significantly reduce	did not significantly reduce	–	6 µM	3.8 µM	induced expression	restoration of p53 levels in vitro [6]: restored p53 levels in vitro to similar levels as the proteasome inhibitor MG132; effect of p53 gene knockdown on C33a sensitivity to compound [7]: significantly reversed; cell viability at 30 μM [8]: decreased viability; nuclear accumulation of p53 in nuclear fraction compared to vehicle [9]: higher levels of nuclear accumulation of p53; p53 nuclear accumulation, % of cell nuclei [11]: 51.1±2.18 % of cell nuclei; cell viability at 30 μM ([4]; HeLa, 30 μM, 48h): decreased viability; PUMA transcription upregulation ([12]; C33a cells): 3.92±0.27 fold; PUMA transcription upregulation ([12]; HeLa cells): 4.35±0.22 fold; cell viability at 30 μM ([5]; C33a, 30 μM, 48h): decreased viability
COc1cc(/C=C/c2ccc3cccc(O)c3n2)cc(Br)c1OC [compound 37]	–	–	–	–	–	induced expression	–
